US20260176594A1, “REDUCING DISEASE TRANSMISSION OF VECTOR BORNE DISEASES” (priority 2022, published 2026)

System: Zika virus
Test: Zika virus replication in Aedes aegypti mosquitoes fed blood meal with harmane, plaque assay on VERO cells
Assay type: in vivo
Details: harmane in infectious blood meal, 7 days; for Zika virus PFU/mL in mosquito abdomens: vs control group
Protocol: 3-to-5-day-old Aedes aegypti strain SBE mosquitoes were fed via membrane feeders on a blood meal (rabbit blood) containing approximately 10^7 PFU/ml Zika virus and the indicated concentrations of harmane dissolved in dimethyl sulphoxide (DMSO). The bloodmeal fed to the control group contained no harmane. Fully engorged mosquitoes were selected and kept on a 10% sucrose diet. In total, 30 mosquitoes were analyzed per treatment.
After 7 days, the abdomens of mosquitoes were dissected and placed in 2 mL tubes containing glass beads and 300 μL of DMEM medium. Samples were homogenized. A 1:10 dilution series of this solution was dispersed onto 96-well plates containing VERO cells. 5-6 days later, the medium was discarded and viral plaques were fixed and developed with staining reagent (1% crystal violet in […] solution) at room temperature for 1 h. 5
Plates were rinsed with distilled water and air-dried. Plaques were counted and multiplied by the corresponding dilution factors to calculate the number of plaque-forming units (PFUs). Horizontal red lines are median values. […] Statistical differences were assessed using the nonparametric Mann-Whitney test.

Cc1nccc2c1[nH]c1ccccc12 [harmane, 1-Methyl-9H-pyrido[3,4-b]indole]
statistical difference of treated groups compared to the DMSO-control (Mann-Whitney): No significant differences | Zika virus PFU/mL in mosquito abdomens: reduced level | Zika virus PFU/mL in mosquito abdomens (listed as Harmane): dose dependent decrease
